US20150057366A1, “SYNTHESIS OF ELEMICIN AND TOPICAL ANALGESIC COMPOSITIONS” (priority 2012, published 2015)

Assay: Preliminary work by the applicant on topical analgesic effectiveness of elemicin compositions
Type: in vivo

| Structure (SMILES) | elemicin content compositions require to start being effective as topical analgesics (topical composition, 30% more preferred, preliminary work) | analgesic effectiveness at the concentrations occurring in natural oils (topical, around 2.4-3.0% in nutmeg and manila elemi oils, up to around 10-14% in mace and some elemi oil) | effectiveness in analgesic compositions (topical analgesic compositions, work thus far by the inventor) |
| --- | --- | --- | --- |
| C=CCc1cc(OC)c(OC)c(OC)c1 [elemicin, 1,2,3-Trimethoxy-5-prop-2-enylbenzene] | at least 20% | analgesic effectiveness does not occur at such low doses |  |
| C/C=C/c1cc(OC)c(OC)c(OC)c1 [iso-elemicin] |  |  | also effective |
